Data on 12 molecules can be found in PubChem BioAssay AID328 (DTP/NCI, 2004).

The test system of this assay is BDF1 mice, P388 leukemia ip, median survival T/C. Briefly: NCI In Vivo Anticancer Drug Screen. Data for tumor model P388 Leukemia (intraperitoneal) in B6D2F1 (BDF1) mice. The following applies: endpoint: median survival time, higher = longer survival. Put shortly: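 Antitumour effect was judged in vivo: survival in drug-treated mice, normalised to that of vehicle-dosed controls, gives the reported T/C.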

Setting [1] is: dose: 100.0 mg/kg/injection, schedule: Q01DX009 (ip), vehicle: saline with Tween-80.
The mark [2] stands for this setting: dose: 50.0 mg/kg/injection, schedule: Q01DX009 (ip), vehicle: saline with Tween-80.
[3] abbreviates: dose: 200.0 mg/kg/injection, schedule: Q01DX009 (ip), vehicle: saline with Tween-80.
Where [4] appears, read: dose: 12.5 mg/kg/injection, schedule: Q04DX003 (ip), vehicle: Klucel (hydroxypropylcellulose) (HPC).

“And” between values parts separate entries of the source, which are not always exact repeats. Identical values can stand only once. Inconclusive results and toxic doses are left out.

Consider `CCOC(=N)c1cn(C2OC(CO)C(O)C2O)c2ncnc(N)c12` (centres undefined), for which the T/C by setting is: (dose: 0.12 mg/kg/injection, schedule: Q01DX009 (ip), vehicle: saline with Tween-80) 168 % of control; (dose: 0.22 mg/kg/injection, schedule: Q01DX009 (ip), vehicle: saline) 174 % of control; (dose: 0.25 mg/kg/injection, schedule: Q01DX009 (ip), vehicle: saline with Tween-80) 195 % of control; (dose: 0.33 mg/kg/injection, schedule: Q01DX009 (ip), vehicle: saline) 196 % of control; (dose: 0.5 mg/kg/injection, schedule: Q01DX009 (ip), vehicle: saline with Tween-80) 163 % of control; (dose: 0.5 mg/kg/injection, schedule: Q01DX009 (ip), vehicle: saline) 186 % of control. Also, the T/C runs as follows: (dose: 0.5 mg/kg/injection, schedule: Q04DX003 (ip), vehicle: saline with Tween-80) 150 % of control; (dose: 0.75 mg/kg/injection, schedule: Q01DX009 (ip), vehicle: saline) 196 % of control; (dose: 0.8 mg/kg/injection, schedule: Q04DX003 (ip), vehicle: saline with Tween-80) 190 % of control; (dose: 1.2 mg/kg/injection, schedule: Q04DX003 (ip), vehicle: saline with Tween-80) 272 % of control; (dose: 1.8 mg/kg/injection, schedule: Q04DX003 (ip), vehicle: saline with Tween-80) 190 % of control and 209 % of control; (dose: 2.6 mg/kg/injection, schedule: Q04DX003 (ip), vehicle: saline with Tween-80) 200 % of control. Moreover, the T/C is 90 % of control (dose: 6.0 mg/kg/injection, schedule: Q04DX003 (ip), vehicle: saline with Tween-80); 106 % of control (dose: 5.3 micrograms/kg/injection, schedule: Q01DX009 (ip), vehicle: saline); 115 % of control (dose: 8.0 micrograms/kg/injection, schedule: Q01DX009 (ip), vehicle: saline); 120 % of control (dose: 15.0 micrograms/kg/injection, schedule: Q01DX009 (ip), vehicle: saline with Tween-80); 152 % of control (dose: 27.0 micrograms/kg/injection, schedule: Q01DX009 (ip), vehicle: saline); 159 % of control (dose: 40.0 micrograms/kg/injection, schedule: Q01DX009 (ip), vehicle: saline). Also, the T/C was 169 % of control (dose: 60.0 micrograms/kg/injection, schedule: Q01DX009 (ip), vehicle: saline); 155 % of control (dose: 66.0 micrograms/kg/injection, schedule: Q01DX009 (ip), vehicle: saline); 154 % of control (dose: 100.0 micrograms/kg/injection, schedule: Q01DX009 (ip), vehicle: saline).

In the case of `CCCCC(NC(C)=O)C(=O)O` (centres undefined), the T/C is, setting by setting: under setting [1], 119 % of control; (dose: 400.0 mg/kg/injection, schedule: Q01DX009 (ip), vehicle: saline with Tween-80) 113 % of control.

Turning to `S=C(/N=C1\CCC\C1=C/c1ccccc1)/N=C1\CCC\C1=C/c1ccccc1`, the T/C was 100 % of control (dose: 100.0 mg/kg/injection, schedule: Q04DX003 (ip), vehicle: saline with Tween-80); 109 % of control (dose: 200.0 mg/kg/injection, schedule: Q04DX003 (ip), vehicle: saline with Tween-80); 115 % of control (dose: 400.0 mg/kg/injection, schedule: Q04DX003 (ip), vehicle: saline with Tween-80).

`CC(=O)OC12COC1CC(O)C1(C)C(=O)C(O)C3=C(C)C(O)CC(O)(C(OC(=O)c4ccccc4)C21)C3(C)C` (centres undefined): the T/C reads like this: (dose: 2.0 mg/kg/injection, schedule: Q01DX009 (ip), vehicle: alcohol) 100 % of control; (dose: 4.0 mg/kg/injection, schedule: Q01DX009 (ip), vehicle: alcohol) 95 % of control; (dose: 8.0 mg/kg/injection, schedule: Q01DX009 (ip), vehicle: alcohol) 100 % of control; (dose: 16.0 mg/kg/injection, schedule: Q01DX009 (ip), vehicle: alcohol) 95 % of control.

`COCC1OC(OC2OCC3OC4(OCC(O)(C(C)OC)C5OCOC54)OC3C2OC)C(OC)C(O)C1OC1OC(C)C(OC)C(OC2OC(C)C3OC4(CC(O)C(OC5CC(OC6CC(C)([N+](=O)[O-])C(OC)C(C)O6)C(OC(=O)c6c(C)c(Cl)c(O)c(Cl)c6OC)C(C)O5)C(C)O4)OC3(C)C2O)C1O` (centres undefined): the T/C (dose: 12.5 mg/kg/injection, schedule: Q01DX009 (ip), vehicle: saline) is 115 % of control.

For `COC(=O)c1cc(O)c(O)c(OC)c1`, the T/C (dose: 25.0 mg/kg/injection, schedule: Q01DX009 (ip), vehicle: saline with Tween-80) is 111 % of control; the T/C under setting [2] was 101 % of control; the T/C under setting [1] was 86 % of control; the T/C under setting [3] is 95 % of control.

On to `CCCCN(CCCC)C(=O)C1C=C2c3cccc4[nH]cc(c34)CC2N(C)C1` (centres undefined), for which the T/C (dose: 50.0 mg/kg/injection, schedule: Q01DX009 (ip), vehicle: water) was 105 % of control; the T/C (dose: 100.0 mg/kg/injection, schedule: Q01DX009 (ip), vehicle: water) is 94 % of control; the T/C (dose: 100.0 mg/kg/injection, schedule: Q04DX003 (ip), vehicle: water) was 105 % of control; the T/C (dose: 200.0 mg/kg/injection, schedule: Q01DX009 (ip), vehicle: water) is 114 % of control; the T/C (dose: 200.0 mg/kg/injection, schedule: Q04DX003 (ip), vehicle: water) was 94 % of control; the T/C (dose: 400.0 mg/kg/injection, schedule: Q01DX009 (ip), vehicle: water) was 109 % of control. In addition, the T/C (dose: 400.0 mg/kg/injection, schedule: Q04DX003 (ip), vehicle: water) was 97 % of control.

On to `O=C(O)c1cc(-c2cccc3ccccc23)nc2cc3ccccc3cc12`, for which the T/C reads like this: under setting [1], 99 % of control; under setting [3], 108 % of control.

As for `C/C(=N/NC(=O)c1ccccc1)c1ccc(Cl)cc1Cl`, the T/C is, setting by setting: (dose: 3.12 mg/kg/injection, schedule: Q04DX003 (ip), vehicle: Klucel (hydroxypropylcellulose) (HPC)) 110 % of control; (dose: 6.25 mg/kg/injection, schedule: Q04DX003 (ip), vehicle: Klucel (hydroxypropylcellulose) (HPC)) 105 % of control; under setting [4], 100 % of control; (dose: 18.0 mg/kg/injection, schedule: Q01DX009 (ip), vehicle: Klucel (hydroxypropylcellulose) (HPC)) 100 % of control; (dose: 18.0 mg/kg/injection, schedule: Q04DX003 (ip), vehicle: Klucel (hydroxypropylcellulose) (HPC)) 100 % of control; (dose: 28.0 mg/kg/injection, schedule: Q01DX009 (ip), vehicle: Klucel (hydroxypropylcellulose) (HPC)) 104 % of control. Besides, the T/C is 100 % of control (dose: 28.0 mg/kg/injection, schedule: Q04DX003 (ip), vehicle: Klucel (hydroxypropylcellulose) (HPC)); 104 % of control (dose: 40.0 mg/kg/injection, schedule: Q04DX003 (ip), vehicle: Klucel (hydroxypropylcellulose) (HPC)); 110 % of control (dose: 60.0 mg/kg/injection, schedule: Q04DX003 (ip), vehicle: Klucel (hydroxypropylcellulose) (HPC)); 110 % of control (dose: 90.0 mg/kg/injection, schedule: Q04DX003 (ip), vehicle: Klucel (hydroxypropylcellulose) (HPC)).

For `CNC(=O)Cc1[nH]ccc1C(=O)O`, the T/C runs as follows: (dose: 100.0 mg/kg/injection, schedule: Q01DX001 (ip), vehicle: saline with Tween-80) 106 % of control; (dose: 200.0 mg/kg/injection, schedule: Q01DX001 (ip), vehicle: saline with Tween-80) 103 % of control; (dose: 400.0 mg/kg/injection, schedule: Q01DX001 (ip), vehicle: saline with Tween-80) 114 % of control.

With `CCOC1(c2ccccc2)c2cc(Cl)ccc2NC(=O)N1CC` (centres undefined), the T/C under setting [2] is 101 % of control, the T/C under setting [1] was 98 % of control and the T/C under setting [3] was 94 % of control.

As for `N#CCc1ccc([N+](=O)[O-])cc1`, the T/C was 100 % of control (dose: 6.25 mg/kg/injection, schedule: Q01DX009 (ip), vehicle: Klucel (hydroxypropylcellulose) (HPC)); 91 % of control (dose: 12.5 mg/kg/injection, schedule: Q01DX009 (ip), vehicle: Klucel (hydroxypropylcellulose) (HPC)); 104 % of control under setting [4]; 117 % of control (dose: 25.0 mg/kg/injection, schedule: Q04DX003 (ip), vehicle: Klucel (hydroxypropylcellulose) (HPC)).
